* marks the point of attachment. Pentanoyl(4-Me) = CC(C)CCC(=O)*

Assay [1] is described as follows: Ethanol-induced gastric mucosal injury (gastroprotection). The assay is classed as in vivo, rats. The settings on record: for ED50 for the gastroprotective effect: s.c. The protocol: Thirty min after gavage, each rat was anesthetized with 5% halothane, the stomach excised, opened along the lesser curvature and everted to expose the mucosa. The everted stomachs were gently rinsed with saline and immediately graded for mucosal damage by each of 10 observers blinded to the experimental treatment.
Stomachs were excised and graded for injury 30 min after ethanol gavage, as described above. The result is provided in the next to the last bar of FIG. 11A.
Stomachs were excised and graded for injury 30 min after ethanol gavage, as described above, and blood was taken for plasma glucose measurement. The injury response was also measured in glucose-treated rats coadministered a 3 mg intravenous bolus of AC187 (n=9).

The nature of assay [2]: Pentagastrin-stimulated gastric acid secretion in gastric fistula rats. The assay is classed as in vivo. The settings on record: for ED50 for the acid-suppressive effect: s.c. How it is done: The experiments were performed during the light cycle. The rats, fed rat chow (Teklad L M 485, Madison, Wis.), were fasted for approximately 20 hours before experimentation. They were given water ad libitum until the start of the experiment.
The rats (age 9-14 weeks, body mass 264-395 g) were surgically fitted with double gastric fistulae by the supplier (Zivic Miller, Catalog number SCAO3.00). During laparotomy under halothane anesthesia, a grommet-shaped double lumen plug was sutured into the stomach wall. Two silastic 2.3 mm internal diameter (entry and exit) cannulae connected to the plug and communicating with the gastric lumen were tracked through the abdominal wall, subcutaneously to the interscapular region where they were separately exteriorized. The laparotomy wound was closed with clips, the rat was placed in a heated recovery cage for one day with free access to water. Thereafter, the rats were housed singly with free access to water and rat chow until they were subjected to overnight fasting for experiments which were performed on conscious rats, about 10-15 days after surgery.
Gastric catheters were uncapped and attached to flexible PE240 tubing for injection and sampling. To ensure patency of the catheters, 2-3 mL of saline solution at room temperature was injected and immediately withdrawn from the stomach. This was repeated until flow was easy and the effluent was clean. Gastric acid secretion was measured at 10 min intervals by injecting 5 mL saline and 2 mL air via one catheter, then immediately withdrawing the same via the other catheter. In this way errors due to incomplete aspiration of the small, secreted volume could be minimized. Three mL of each gastric aspirate were titrated to pH 7.0 with 0.01 N sodium hydroxide using a pH meter (Beckman model number PHI34 Fullerton, Calif.). The amount of base required for each titration, corrected for the total volume aspirated, was used to calculate the moles of acid in each sample.

The conditions of assay [3]: in vivo; cited from earlier work.
Assay [4] can be described thus: Ghrelin assay (plasma total and active ghrelin). The assay is classed as in vivo, rats. The protocol:
All experiments were performed in the light cycle. Animals were fasted for approximately 20 hours before experimentation. All animals were given free access to water until the start of the experiment. The animals' tails were anesthetized with 20% benzocaine (Hurricaine, Beutlich Pharmaceutical, Waukegan, Ill.), and blood samples were collected from the tail vein. Total and active ghrelin concentrations were measured using Linco RIA kits GHRA-89HK and GHRA-88HK, respectively.
In study 1, HSD rats were subjected to periodic blood sampling from the topically anesthetized tail and ghrelin levels were assayed. […] The blood samples were analyzed for total and active (acylated) ghrelin (Linco).
Blood plasma samples were collected at least at times 0, 10, 20, 30, 60, and 90 min.

Assay [5] is described as follows: Food intake assay in overnight fasted mice. Format: in vivo. The settings on record: 25 nmol/kg intraperitoneal. How it is done:
Female NIH/Swiss mice (8-14 weeks old) were group housed with a 12:12 hour light:dark cycle. Water and a standard pelleted mouse chow diet are available ad libitum, except as noted. Animals are fasted starting at approximately 1500 hrs, 1 day prior to experiment.
The effects of treatment on food intake are expressed as % change relative to control.

Where [6] appears, read: 100 μg, one hour after amylin injection.

In the case of `O=C[C@H](O)[C@@H](O)[C@H](O)[C@H](O)CO` [D-glucose], the “decrease of gastric injury score” value in assay [1] (250 mg intraperitoneal, t=−30 min from gavage) turned out to be 18.5±4.6%.
Take “Amylin: amylin peptide hormone as summarised from the literature (Table 1, background), species not stated (KCNTATCATQRLANFLVHSSNNFGAILSSTNVGSNTY; Islet amyloid polypeptide; UniProt P10997 34-70, looked up)”: the “rate of acid secretion as % of the basal rate that preceded pentagastrin injection” value in assay [2] (setting [6]) is listed as 32%. The “reduction of pentagastrin-stimulated secretion of acid” value in assay [2] (setting [6]) was 93.4±2.6%. Moreover, the “gastric acid production (FIG. 10A)” value in assay [2] (injected 40 min after pentagastrin, 0.1-100 μg) was “dose-dependently inhibited gastric acid production”. Further, the figures for the “ED50 for the acid-suppressive effect” value in assay [2] and in assay [2] (±0.15 log units) were 41 pmol/kg and 0.05 μg/rat, respectively. The “onset of effect in food intake assays” value in assay [3] was at most 30 min. Moreover, in assay [3], the “time course of effect in food intake assays” value is listed as “its effect tapers off after 60 minutes”. The “reduction of injury score” value in assay [1] (doses of 0.3 μg and higher) stood at 67%. Also, the results for the “ED50 for the gastroprotective effect” value in assay [1] and in assay [1] (±0.40 log units) were 31 pmol/kg and 0.036 µg, respectively. Further, the “protection of the stomach from mucosal injury (FIG. 11C)” value in assay [1] (s.c. before ethanol gavage, P<0.05 with doses of 0.1 μg and higher) is given as “dose-dependently protected the stomach from mucosal injury”.
Consider “CSNLSTCVLGKLSQELHKLQTYPRTNTGSGTP (listed as Oncorhynchus sp.) [salmon calcitonin]”, for which the “time course of effect in food intake assays” value in assay [3] is on record as “delayed effect, with peak levels still maintained at 240 minutes”.
For “KCNTATCATQRLANFLVRSSNNLGPVLPPTNVGSNTY (listed as Rattus sp.) [rat amylin]”, in assay [4] (10 μg s.c. 20 min after pentagastrin […], within 1 hour), the “reduction of active ghrelin (FIG. 8A)” value is listed as around 50%. Also, the “plasma ghrelin, amylin alone without pentagastrin (FIG. 8B)” value in assay [4] (30 μg/kg s.c., no pentagastrin) is “plasma ghrelin was reduced compared to the control”. Besides, the “total plasma ghrelin compared to saline control (FIGS. 8B, 8C)” value in assay [4] (30 μg/kg s.c., with or without pentagastrin) is “reduction in total plasma ghrelin”.
For “TCDTATCVLGRLSQELHRLQTYPRTNTGSNTY [Compound 114]”, in assay [5], the “cumulative food intake compared to vehicle, 30 min” value is given as −17%; the “cumulative food intake compared to vehicle, 60 min” value is recorded as −20%; the “cumulative food intake compared to vehicle, 120 min” value is on record as −25%.
In the case of “isocaproyl-STAVLGRLSQELHRLQTYPRTNTGSNTY ({Pentanoyl(4-Me)}-STAVLGRLSQELHRLQTYPRTNTGSNTY-NH2; SMILES CC(C)CCC(=O)N[C@@H](CO)C(=O)N[C@H](C(=O)N[C@@H](C)C(=O)N[C@H](C(=O)N[C@@H](CC(C)C)C(=O)NCC(=O)N[C@@H](CCCNC(=N)N)C(=O)N[C@@H](CC(C)C)C(=O)N[C@@H](CO)C(=O)N[C@@H](CCC(N)=O)C(=O)N[C@@H](CCC(=O)O)C(=O)N[C@@H](CC(C)C)C(=O)N[C@@H](Cc1c[nH]cn1)C(=O)N[C@@H](CCCNC(=N)N)C(=O)N[C@@H](CC(C)C)C(=O)N[C@@H](CCC(N)=O)C(=O)N[C@H](C(=O)N[C@@H](Cc1ccc(O)cc1)C(=O)N1CCC[C@H]1C(=O)N[C@@H](CCCNC(=N)N)C(=O)N[C@H](C(=O)N[C@@H](CC(N)=O)C(=O)N[C@H](C(=O)NCC(=O)N[C@@H](CO)C(=O)N[C@@H](CC(N)=O)C(=O)N[C@H](C(=O)N[C@@H](Cc1ccc(O)cc1)C(N)=O)[C@@H](C)O)[C@@H](C)O)[C@@H](C)O)[C@@H](C)O)C(C)C)[C@@H](C)O) [Compound 20]”, in assay [5], the “cumulative food intake compared to vehicle, 30 min” value is −9%; the “cumulative food intake compared to vehicle, 60 min” value is given as −21%; the “cumulative food intake compared to vehicle, 120 min” value was −30%. In assay [5] (180 min), the “cumulative food intake compared to vehicle, 180 min” value is −31%.

The values are drawn from patent US8598120B2 (Amylin Pharmaceuticals, LLC, priority 2004, dated 2013).
